Laboratory results taken from article PMC3384000, “TCN 201 selectively blocks GluN2A-containing NMDARs in a GluN1 co-agonist dependent but non-competitive manner” (Neuropharmacology, 2012).
Where two headings read alike, the source gives them in different places. Each block holds one molecule with its values, some of them ahead of it.

Columns and labels:
[1] = Solubility in external recording solutions; type: physicochemical; settings: external recording solutions for TEVC or whole-cell patch-clamp; from 3 mM DMSO stock
Procedure: Glutamate, glycine and D-serine were purchased from Sigma–Aldrich (Poole, UK). TCN 201, TCN 213, NMDA, ifenprodil, picrotoxin and tetrodotoxin were purchased from Tocris Bioscience (Bristol, UK). Stock solutions (3 mM) of TCN 201 were made by dissolving the antagonist in DMSO.

[2] = biological target: T1, GluN1/GluN2A NMDARs (Rattus norvegicus, UniProt P35439+Q00959); test: TEVC recordings of NMDAR currents from Xenopus laevis oocytes expressing GluN1/GluN2A; type: cell-based; settings: for inhibition at 10 µM: TCN 201 10 μM; for inhibition of GluN1/GluN2A NMDAR-mediated currents: antagonist 10 μM; for IC50: minimum unconstrained, read-out: IC50 (concentration giving 50% of the maximal achievable inhibition)
T1 construct: expressed in transfected cells; host or cells: Xenopus laevis oocytes injected with cRNA (GluN1:GluN2 1:1)
T1 sequence (Q00959 20-1464 limits assumed, other chains not shown): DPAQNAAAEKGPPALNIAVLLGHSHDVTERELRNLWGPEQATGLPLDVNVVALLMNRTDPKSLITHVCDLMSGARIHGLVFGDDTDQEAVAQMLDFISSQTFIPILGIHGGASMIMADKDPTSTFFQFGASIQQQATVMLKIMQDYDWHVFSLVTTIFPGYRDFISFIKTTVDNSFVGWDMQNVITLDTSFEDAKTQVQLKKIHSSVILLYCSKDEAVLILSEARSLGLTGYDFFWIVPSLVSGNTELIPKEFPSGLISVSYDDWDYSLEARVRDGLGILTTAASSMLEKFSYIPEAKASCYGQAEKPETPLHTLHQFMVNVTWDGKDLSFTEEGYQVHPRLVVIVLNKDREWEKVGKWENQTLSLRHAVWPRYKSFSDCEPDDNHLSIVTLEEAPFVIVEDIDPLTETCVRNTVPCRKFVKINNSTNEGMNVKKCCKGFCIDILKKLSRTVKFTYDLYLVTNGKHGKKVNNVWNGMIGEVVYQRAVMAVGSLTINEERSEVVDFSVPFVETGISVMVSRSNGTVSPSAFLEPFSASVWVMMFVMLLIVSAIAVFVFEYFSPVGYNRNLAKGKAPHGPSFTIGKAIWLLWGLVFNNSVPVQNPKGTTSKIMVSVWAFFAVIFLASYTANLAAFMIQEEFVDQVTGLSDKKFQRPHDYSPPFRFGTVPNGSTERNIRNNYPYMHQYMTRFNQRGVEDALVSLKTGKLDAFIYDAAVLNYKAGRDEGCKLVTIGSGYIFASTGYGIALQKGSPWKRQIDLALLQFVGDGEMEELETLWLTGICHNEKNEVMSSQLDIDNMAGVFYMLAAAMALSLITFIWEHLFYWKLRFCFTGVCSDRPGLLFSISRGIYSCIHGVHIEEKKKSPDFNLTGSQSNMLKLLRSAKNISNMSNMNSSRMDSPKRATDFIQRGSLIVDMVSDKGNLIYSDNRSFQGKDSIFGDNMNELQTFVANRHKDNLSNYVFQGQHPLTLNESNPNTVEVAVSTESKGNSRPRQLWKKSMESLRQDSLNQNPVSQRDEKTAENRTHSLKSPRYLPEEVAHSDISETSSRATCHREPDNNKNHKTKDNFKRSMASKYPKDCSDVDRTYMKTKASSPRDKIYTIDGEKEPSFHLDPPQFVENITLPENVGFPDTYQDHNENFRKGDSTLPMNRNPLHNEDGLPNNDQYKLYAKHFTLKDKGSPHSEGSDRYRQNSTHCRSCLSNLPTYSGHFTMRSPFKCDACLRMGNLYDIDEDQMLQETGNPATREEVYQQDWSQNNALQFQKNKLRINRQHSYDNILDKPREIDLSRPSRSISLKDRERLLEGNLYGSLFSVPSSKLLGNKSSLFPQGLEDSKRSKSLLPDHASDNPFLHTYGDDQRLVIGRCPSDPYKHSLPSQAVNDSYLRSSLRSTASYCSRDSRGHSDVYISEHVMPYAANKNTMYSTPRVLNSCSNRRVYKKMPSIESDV
Procedure: (§1) Nomenclature of NMDA receptor subunits follows [Collingridge et al. (2009)] and [Alexander et al. (2011)]. pSP64T-based plasmid constructs containing cDNA coding for rat GluN1-1a (i.e. the splice variant that lacks exon 5, but contains exons 21 and 22), hereafter termed GluN1 and wild-type rat GluN2A receptor subunits were prepared as described by ([Chen et al., 2005]). The rat GluN2B-containing cDNA expression vector was a gift by Stephen Traynelis (Emory University, Atlanta, GA). cRNA was synthesized as runoff transcripts as previously detailed ([Chen et al., 2005], [2008]; [Erreger et al., 2007]). Fluorescence intensity in ethidium bromide-stained agarose gels was employed to confirm the fidelity and yield of synthesized cRNAs. For recombinant receptor expression, GluN1 and GluN2 cRNAs were mixed at a nominal ratio of 1:1 and diluted with nuclease-free water to 5 ng μl^−1.
(§2) Oocytes (Stage V–VI) were removed from Xenopus laevis that had been killed in accordance with current UK Home Office protocols and defolliculated by initial collagenase treatment, then manually using forceps. 23–37 nl of cRNA mix was injected into oocytes which were subsequently maintained in Barth's solution (composition in mM: NaCl 88, KCl 1, NaHCO3 2.4, MgCl2 0.82, CaCl2 0.77, Tris-Cl 15, adjusted to pH 7.35 with NaOH and supplemented with 50 IU ml^−1 penicillin, 50 μg ml^−1 streptomycin, 50 μg ml^−1 tetracycline) for 24–48 h at 19 °C to allow for receptor expression and then stored at 4 °C until required for electrophysiological measurements.
(§3) Two-electrode voltage-clamp (TEVC) recordings were made using a GeneClamp 500 amplifier (Molecular Devices, Sunnyvale, CA) at room temperature (18–21 °C) from oocytes placed in a bath that was perfused with a solution comprising (in mM): NaCl 115, KCl 2.5, HEPES 10, BaCl2 1.8, EDTA 0.01; pH 7.4 with NaOH. Note EDTA was included to chelate contaminating low nanomolar levels of Zn^2+ that potently block of GluN2A-containing NMDARs in a voltage-independent manner. […] TEVC recordings were performed at −30 or −40 mV. Currents were filtered at 10 Hz and digitized online at 100 Hz, via a Digidata 1200 A/D interface (Molecular Devices, Union City, CA, USA), using WinEDR 3.1.9 software (Strathclyde Electrophysiology Software, Strathclyde University, UK).
The concentration of TCN 201 required to inhibit 50% (IC50) of agonist-evoked responses were determined by fitting data to the equation: I=I[B]∞+((I[B]0−I[B]∞)/(1+([B]/IC50)^nH)), where I is current response, I[B]0 is predicted maximum current in the absence of antagonist, I[B]∞ is the predicted minimum current in the presence of an infinite concentration of antagonist,[B] is the concentration of the antagonist and nH represents the Hill coefficient. To obtain an overall mean IC50 value, data points were normalised to the predicted maximum, pooled and refitted with the equation, with the maximum of each curve being constrained to asymptote to 1 but with the minimum fitted as a free parameter ([Otton et al., 2011]; [Wrighton et al., 2008]). In addition we fitted data points where both the maximum and minimum were constrained (to 1 and 0, respectively). The F ratio was calculated from the following equation: F=(SSR1−SSR2)/(DF1−DF2)/SSR2/DF2, where SSR1 and SSR2 are the sum of squared residuals of the constrained and unconstrained fits respectively and DF1 and DF2 are the degrees of freedom associated with each of the two fits.

[3] = biological target: T2, GluN1/GluN2B NMDARs (Rattus norvegicus, UniProt P35439+Q00960); test: TEVC recordings of NMDAR currents from Xenopus laevis oocytes expressing GluN1/GluN2B; type: cell-based; settings: TCN 201 10 μM, read-out: percentage inhibition of GluN1/GluN2B NMDAR-mediated currents
T2 construct: expressed in transfected cells; host or cells: Xenopus laevis oocytes injected with cRNA (GluN1:GluN2 1:1)
T2 sequence (Q00960 27-1482, other chains not shown): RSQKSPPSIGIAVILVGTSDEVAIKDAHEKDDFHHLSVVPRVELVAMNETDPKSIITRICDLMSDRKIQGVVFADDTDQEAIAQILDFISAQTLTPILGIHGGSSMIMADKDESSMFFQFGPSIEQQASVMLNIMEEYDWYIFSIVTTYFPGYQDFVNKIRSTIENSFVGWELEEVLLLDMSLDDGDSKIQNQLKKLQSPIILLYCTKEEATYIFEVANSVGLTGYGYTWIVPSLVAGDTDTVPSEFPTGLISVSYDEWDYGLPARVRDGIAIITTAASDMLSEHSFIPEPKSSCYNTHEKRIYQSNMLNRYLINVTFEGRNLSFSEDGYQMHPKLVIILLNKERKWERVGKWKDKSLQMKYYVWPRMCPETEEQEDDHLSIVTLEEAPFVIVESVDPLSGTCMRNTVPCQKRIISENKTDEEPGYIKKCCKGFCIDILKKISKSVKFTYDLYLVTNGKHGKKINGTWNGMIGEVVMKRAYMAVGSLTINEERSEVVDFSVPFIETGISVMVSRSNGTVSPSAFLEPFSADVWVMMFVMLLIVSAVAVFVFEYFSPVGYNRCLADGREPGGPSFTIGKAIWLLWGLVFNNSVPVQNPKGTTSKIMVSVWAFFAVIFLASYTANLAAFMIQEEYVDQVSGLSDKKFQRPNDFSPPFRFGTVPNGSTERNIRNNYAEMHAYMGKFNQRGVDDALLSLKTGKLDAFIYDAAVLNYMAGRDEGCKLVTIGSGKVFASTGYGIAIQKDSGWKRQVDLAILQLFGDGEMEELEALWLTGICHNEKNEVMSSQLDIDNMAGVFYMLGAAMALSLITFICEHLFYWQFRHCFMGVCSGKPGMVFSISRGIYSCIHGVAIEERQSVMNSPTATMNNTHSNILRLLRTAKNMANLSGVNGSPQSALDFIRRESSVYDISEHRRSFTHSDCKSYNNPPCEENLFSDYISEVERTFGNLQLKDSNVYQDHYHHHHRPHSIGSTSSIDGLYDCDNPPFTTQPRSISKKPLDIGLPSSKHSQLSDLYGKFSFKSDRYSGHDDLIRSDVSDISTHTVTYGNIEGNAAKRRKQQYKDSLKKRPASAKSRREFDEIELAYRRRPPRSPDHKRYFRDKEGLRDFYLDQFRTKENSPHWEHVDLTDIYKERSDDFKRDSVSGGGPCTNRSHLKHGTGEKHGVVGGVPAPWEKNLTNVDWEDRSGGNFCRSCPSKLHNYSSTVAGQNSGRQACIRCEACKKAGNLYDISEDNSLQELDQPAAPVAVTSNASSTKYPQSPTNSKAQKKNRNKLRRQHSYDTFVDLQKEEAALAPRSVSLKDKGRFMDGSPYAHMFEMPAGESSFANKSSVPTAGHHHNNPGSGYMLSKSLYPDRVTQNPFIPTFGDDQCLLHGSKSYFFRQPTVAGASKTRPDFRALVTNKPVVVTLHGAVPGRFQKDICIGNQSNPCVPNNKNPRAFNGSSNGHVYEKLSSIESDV
Procedure: as §1, §2
as §3, with “Currents were filtered at 10 Hz and digitized online at 100 Hz, via a Digidata 1200 A/D interface (Molecular Devices, Union City, CA, USA), using WinEDR 3.1.9 software (Strathclyde Electrophysiology Software, Strathclyde University, UK).” left out

[4] = system: NMDAR-mediated currents in rat cortical neurones; test: Whole-cell NMDA-evoked currents in cultured cortical neurones; type: cell-based; settings: TCN 201 10 μM after ifenprodil, NMDA 50 μM, glycine 3 μM
[5] = biological target: T1, GluN1/GluN2A NMDARs; test: Schild analysis of antagonism at GluN1/GluN2A NMDARs (TEVC, oocytes); type: cell-based; settings: for dose ratio (r) for shift in glycine potency: glutamate 30 μM; for Schild plot slope (free linear regression fit): 0.3, 1 and 3 μM TCN 201 data points
Procedure: as §1, §2, §3
TCN 201 antagonism at the GluN1/GluN2A NMDAR was examined by the Schild method ([Arunlakshana and Schild, 1959]; [Wyllie and Chen, 2007]). Dose-ratios (r) were defined as the ratio of the concentration of agonist, in the presence of a fixed concentration of antagonist, required to evoke the same response that was obtained in the absence of the antagonist. Dose-ratios from individual oocytes were determined at low agonist concentrations by constructing a partial concentration-response curve generated in the absence of antagonist and in the presence of a series of increasing antagonist concentrations. Due to the lack of sufficient perfusion lines, the dose-ratio estimate for the higher concentrations of TCN 201 (3 and 10 μM) was determined in a separate series of experiments from those carried out for the lower two concentrations (0.3 and 1 μM). Each series of two-point concentration-response curves were plotted on a log–log scale and the slope of the line used to fit the initial (antagonist-free) two-point concentration-response curve was used to fit the remaining curves. These parallel fits were used to calculate an overall mean r value for each antagonist concentration [B], which were then used to construct a Schild plot. On a log–log scale the gradient of the line used to fit such data is predicted by the Schild equation to be unity for a competitive antagonist. […] For ‘allosteric’ antagonism at equilibrium, the Schild plot deviates from unity at higher concentrations of antagonist ([Christopoulos and Kenakin, 2002]). […]

[6] = biological target: T1, GluN1/GluN2A NMDARs; parameters: method as in McKay et al., 2012; settings: ref McKay et al., 2012, cited from earlier work
[7] = glutamate 30 μM, D-serine 10 μM
[8] = glutamate 30 μM, D-serine 30 μM

maximum usable concentration (noticeable precipitate at higher concentrations) [1]: 10 µM
inhibition at 10 µM ([2]; Fig. 2b, read-out: inhibition of glutamate/glycine-evoked GluN1/GluN2A NMDAR-mediated currents): 91.2 ± 1.1%
inhibition at 10 µM ([2]; data not shown, read-out: inhibition of NMDA/glycine-evoked GluN1/GluN2A NMDAR-mediated currents): 69.9 ± 4.1%
inhibition at 10 µM ([2]; glutamate 3 μM, glycine 30 μM, read-out: percentage inhibition of GluN1/GluN2A NMDAR-mediated currents): 54.5 ± 3.4%
inhibition at 10 µM ([2]; glutamate 10 μM, glycine 30 μM, read-out: percentage inhibition of GluN1/GluN2A NMDAR-mediated currents): 52.2 ± 3.7%
inhibition at 10 µM ([2]; glutamate 30 μM, glycine 30 μM (glutamate-dependency series), read-out: percentage inhibition of GluN1/GluN2A NMDAR-mediated currents): 45.8 ± 2.8%
inhibition of GluN1/GluN2A NMDAR-mediated currents ([2]; glutamate 30 μM, glycine 10 μM): 82.4 ± 1.1%
inhibition of GluN1/GluN2A NMDAR-mediated currents ([2]; glutamate 30 μM, glycine 30 μM): 50.7 ± 1.1%
Hill slope ([2]; glutamate 30 μM, D-serine 3 μM): 1.57 ± 0.078
IC50 ([2]; glutamate 30 μM, D-serine 3 μM): 0.326 ± 0.018 µM
Hill slope [2, 7]: 1.33 ± 0.21
IC50 [2, 7]: 0.816 ± 0.231 µM
Hill slope [2, 8]: 1.17 ± 0.07
IC50 [2, 8]: 1.92 ± 0.25 µM
Hill slope ([2]; glutamate 30 μM, glycine 3 μM): 1.42 ± 0.061
IC50 ([2]; glutamate 30 μM, glycine 3 μM): 0.446 ± 0.026 µM
Hill slope ([2]; glutamate 30 μM, glycine 10 μM): 1.49 ± 0.21
IC50 ([2]; glutamate 30 μM, glycine 10 μM): 0.746 ± 0.133 µM
Hill slope ([2]; glutamate 30 μM, glycine 30 μM): 1.17 ± 0.11
IC50 ([2]; glutamate 30 μM, glycine 30 μM): 3.89 ± 1.06 µM
predicted maximal inhibition ([2]; saturating glycine (or D-serine), from fits with unconstrained minima): around 40%
inhibition at 10 µM ([3]; glycine 3 μM): 1.8 ± 0.6%
inhibition at 10 µM ([3]; glycine 10 μM): 3.1 ± 1%
inhibition at 10 µM ([3]; glycine 30 μM): 3.1 ± 0.8%
dose ratio (r) for shift in glycine potency ([5]; 0.3 μM TCN 201): 5.19 ± 0.4
dose ratio (r) for shift in glycine potency ([5]; 1 μM TCN 201): 16.7 ± 2.1
dose ratio (r) for shift in glycine potency ([5]; 3 μM TCN 201): 41.1 ± 1.5
dose ratio (r) for shift in glycine potency ([5]; 10 μM TCN 201): 49.0 ± 2.0
pA2 ([5]; GluN1/GluN2A NMDARs, from Schild plot intercept): 7.15
Schild plot slope (free linear regression fit) ([5]; agonist D-serine): 0.87
allosteric constant (α) ([5]; agonist D-serine, modified equation): 0.0106
Kb ([5]; agonist D-serine, modified equation, all data points, read-out: allosteric KB^# (allosteric antagonist dissociation constant)): 0.066 µM
Kb ([5]; agonist D-serine, slope constrained to unity, first three data points, read-out: equilibrium constant (KB)): 0.081 µM
maximum shift in the dose ratio (= 1/α) ([5]; agonist glycine): around 80 fold
Schild plot slope (free linear regression fit) ([5]; agonist glycine): 0.98
TCN 201 concentration needed to achieve the maximum dose-ratio shift ([5]; agonist glycine, above limit of solubility): approximately 275 μM
allosteric constant (α) ([5]; agonist glycine, modified equation): 0.0123
Kb ([5]; agonist glycine, modified equation, all data points, read-out: allosteric KB^# (allosteric antagonist dissociation constant)): 0.056 µM
Kb ([5]; agonist glycine, slope constrained to unity, first three data points, read-out: equilibrium constant (KB)): 0.07 µM
potency relative to TCN 213 at GluN1/GluN2A NMDARs ([5]; comparison of pA2 / equilibrium constants): around 30 times
maximum shift in the dose ratio (= 1/α) ([5]; glycine or D-serine as GluN1-site agonist): 80–90 fold
SMILES: O=C(NNC(=O)c1ccc(CNS(=O)(=O)c2ccc(F)c(Cl)c2)cc1)c1ccccc1 [TCN 201, 3-chloro-4-fluoro-N-[4-[[2-(phenylcarbonyl)hydrazino]carbonyl]benzyl]benzenesulphonamide]
block of NMDAR-mediated current (percentage of the original current magnitude) ([4]; DIV 9–10 neurones): 5 ± 2%
block of NMDAR-mediated current (percentage of the original current magnitude) ([4]; DIV 15–18 neurones): 16 ± 3%
block of NMDAR-mediated current (percentage of the original current magnitude) ([4]; GluN2A-transfected DIV 9–10 neurones): 47 ± 4%

inhibition of GluN1/GluN2A NMDAR-mediated currents ([2]; glutamate 30 μM, glycine 10 μM): 44.0 ± 2.2%
inhibition of GluN1/GluN2A NMDAR-mediated currents ([2]; glutamate 30 μM, glycine 30 μM): 17.3 ± 1.4%
SMILES: O=C(CSc1nnc(NCc2ccccc2)s1)NCC1CCCCC1 [TCN 213, N-(cyclohexylmethyl)-2-[{5-[(phenylmethyl)amino]-1,3,4-thiadiazol-2-yl}thio]acetamide]
pA2 ([6]; GluN1/GluN2A NMDARs): 5.69
Kb ([6]; Schild analysis, agonist glycine, read-out: equilibrium constant (KB)): 2 µM
